According to ChEMBL document CHEMBL1156829 (Proc Natl Acad Sci U S A, 2008):

Experiments:
Plasmodium falciparum [1] = test: NOVARTIS: Inhibition of Plasmodium falciparum 3D7 (drug-susceptible) proliferation in erythrocyte-based infection assay; format: functional, organism-based; conditions: Plasmodium falciparum, 3D7
Plasmodium falciparum [2] = test: NOVARTIS: Inhibition of Plasmodium falciparum W2 (drug-resistant) proliferation in erythrocyte-based infection assay; format: functional, organism-based; conditions: Plasmodium falciparum, W2; read-out: EC50
[3] = NOVARTIS: Cytotoxicity against human hepatocellular carcinoma cell line (Huh7); format: toxicity, cell-based, Huh-7; conditions: Huh7 cells (hepatocellular carcinoma cell line)

SMILES | EC50 (Plasmodium falciparum [1]) [µM] | EC50 (Plasmodium falciparum [2]) [µM] | CC50 [3] [µM]
Cc1cc2nc(NC(=N)N)nc(C)c2cc1C | 2.66 | > 9.3 | > 100
CN(C)C(=O)O[n+]1ccc(N(C)C)cc1 | > 0.99 | > 0.897 | > 10
CCOC(=O)C1=C(C)N=c2sc(=Cc3cccc(OCc4cccc5ccccc45)c3)c(=O)n2C1c1ccc(OC)cc1OC (configuration not stated) | > 12.5 | > 9.27 | > 100
Clc1cc(N2CCCCC2)c(Cl)nn1 | > 1.25 | > 0.892 | > 10
CCN1CCN(CC(O)COc2ccc(OC)cc2)CC1 (configuration not stated) | 2.81 | > 9.19 | > 100
Oc1ccc(Nc2nc(N3CCCC3)c3ccccc3n2)cc1 | 0.584 | 0.926 | > 10
Oc1ccccc1Nc1nc(NCc2ccccc2)c2ccccc2n1 | 0.277 | 1.12 | 12.5
O=c1[nH]c(N2CCCC2)nc2c1CCN(Cc1coc3ccccc3c1=O)C2 | > 1.25 | > 0.896 | > 10
Cc1nc2ccccc2c(=O)n1-c1ccc([N+](=O)[O-])cc1 | 0.765 | 0.896 | > 10
Cc1cc(Nc2ccc(C)c(Cl)c2)n2ncnc2n1 | 1.4 | > 0.927 | > 10
CCCCCN(C(=O)c1ccc(C)cc1)C(C)c1nc2ccccc2c(=O)n1-c1ccccc1CC (configuration not stated) | > 1.61 | 0.895 | > 10
CCOC(=O)C1=C(C)N/C(=C\c2cc(C)n(-c3cccc(Br)c3)c2C)C1=O | > 1.25 | > 0.926 | > 10
COc1cc(Br)c(/C=C2\Sc3ccccc3C2=O)cc1OC | > 1.25 | > 0.925 | > 10
O=C(CCl)Nc1ccc(S(=O)(=O)OCC(F)(F)C(F)F)cc1 | 1.73 | 1.58 | 17.1
Cc1c(C#N)c2ccccc2n1CC(=O)Nc1ccc(Br)cc1 | 0.771 | 1.03 | 11.1
COc1ccc(OC)c(C(=O)c2oc3ccccc3c2NC(=O)CCl)c1 | 10.2 | 1.38 | 15.5
COc1ccc(C(=O)Nc2ccc(-c3nc4ccc(NC(=O)c5ccc(OC)cc5)cc4[nH]3)cc2)cc1 | 0.8 | 0.81 | 8.78
CCOC(=O)C1=C(N)n2c(sc(=Cc3cccnc3)c2=O)=C(C(=O)OC)C1c1cccnc1 (configuration not stated) | > 1.25 | > 0.922 | > 10
COc1cc(/C=C(\C#N)c2nc3ccccc3[nH]2)ccc1OCc1ccccc1F | > 1.19 | 0.919 | > 10
COc1ccc(/C=C/C(=O)Nc2ccc(S(=O)(=O)N3CCOCC3)cc2)cc1 | > 1.62 | 0.891 | > 10
O=C(N/C(=C/C=C/c1ccccc1)C(=O)N1CCCCC1)c1ccc([N+](=O)[O-])cc1 | > 0.719 | > 0.889 | > 10
O=C(NCCCN1CCCC1=O)c1cccn2c(=O)c3ccc(Cl)cc3nc12 | > 1.35 | > 0.918 | > 10
C=CCNC(=O)c1cc(OCc2ccccc2)c(OCc2ccccc2)c(OCc2ccccc2)c1 | 10.8 | 9.18 | > 100

SMILES | EC50 (Plasmodium falciparum [1]) [µM] | EC50 (Plasmodium falciparum [2]) [µM] | CC50 [3] [µM]
CCOc1ccc(C=NNC(=O)CCn2nnc3ccccc32)cc1 | > 1.04 | > 1.25 | > 13.6
CCOc1ccc(C(=O)Nc2cc(OC)ccc2OC)cc1 | > 1.25 | > 0.917 | > 10
CCCCCN(C(=O)Nc1ccccc1OC)C(C)c1nc2ccccc2c(=O)n1-c1ccccc1OCC (configuration not stated) | 0.843 | 0.917 | > 10
CCOc1ccc(C2=NC3(CCN(C(C)C)CC3)NC(c3cc(Cl)ccc3O)C2)cc1 (configuration not stated) | 7.18 | 5.48 | 59.9
Fc1ccc(-n2cc(-c3ccccc3)[n+]3c2SCC3)cc1 | > 0.965 | > 0.911 | > 10
CCCCNCCN1CCN(c2cc(OC)cc(OC)c2)C[C@@H]1Cc1ccccc1 | > 1.25 | 0.938 | 10.3
O=C(CN1CCCC1C(c1ccccc1)c1ccccc1)N1CCSCC1 (configuration not stated) | > 1.25 | > 1.08 | 12
CCOC(=O)c1c(N)n(-c2ccc(NC(=O)c3cccc([N+](=O)[O-])c3)cc2)c2nc3ccccc3nc12 | 0.32 | 1.74 | 19.4
COc1cccc(NC(=O)c2ccc3oc(=O)c(S(=O)(=O)c4ccccc4)cc3c2)c1 | > 1.25 | > 0.898 | > 10
Cn1c(C(C#N)C(=S)NC2CCCCC2)nc2cccnc21 (configuration not stated) | > 1.25 | > 0.894 | > 10
COc1cc(NC(C)CCCN(Cc2ccccc2OC)S(=O)(=O)c2ccc(Br)cc2)c2ncccc2c1 (configuration not stated) | 0.945 | 0.427 | 4.58
N#Cc1c(N)nc2sc(C(=O)c3ccc(F)cc3)c(N)c2c1-c1ccccc1 | > 1.25 | > 0.915 | > 10
CC(=O)c1ccc(OCCSc2nc3c(N)ncnc3[nH]2)cc1 | > 11.2 | > 9.15 | > 100
Cc1nc2c(-c3ccccc3)c(C)nn2c(C)c1CC(=O)NCc1ccccn1 | > 12.5 | 9.14 | > 100
CCOc1ccc(NC(=O)CSc2nc3cc(OCC)ccc3[nH]2)cc1 | 0.9 | > 1.25 | > 13.8
Cc1cc(C)n(N=Cc2cccc(Cl)c2)c(=O)c1C#N | > 12.5 | 9.06 | > 100
Cc1c(C(=O)N2CCN(c3cccc(Cl)c3)CC2)sc2ncnc(N(C)c3ccccc3)c12 | > 0.723 | > 0.906 | > 10
Cc1ccc(NC(=O)c2sc3nc4c(c(-c5ccc(C)cc5)c3c2N)CCC4)cc1 | 2.79 | 8.94 | > 100
Oc1c(C(Nc2ccccn2)c2ccncc2)ccc2cccnc12 (configuration not stated) | 0.83 | 0.892 | > 10
CCOc1ccccc1C1NC(=O)NC(C)=C1C(=O)OCC(F)(F)C(F)(F)F (configuration not stated) | > 1.25 | > 0.913 | > 10
Cc1ccc(C=Cc2ccc3ccccc3[n+]2C)cc1 | 0.0594 | 1.49 | 16.3
COc1ccc(NS(=O)(=O)c2cccc(C(=O)Nc3ccccc3[N+](=O)[O-])c2)cc1 | > 12.5 | 4.13 | 44.5
N#C/C(=C\n1cc(Cc2ccc(Cl)cc2Cl)c2ccccc21)c1nn(CCO)c(N)c1C#N | 0.913 | 0.929 | > 10

SMILES | EC50 (Plasmodium falciparum [1]) [µM] | EC50 (Plasmodium falciparum [2]) [µM] | CC50 [3] [µM]
O=C1c2ccccc2C(=O)C12C(c1ccc(Br)cc1)N(c1ccccc1)C1(C(=O)c3ccccc3C1=O)C2c1ccc(Br)cc1 (configuration not stated) | 0.51 | > 0.914 | > 10
Nc1cc(OC(=O)c2ccccc2)nn1S(=O)(=O)c1ccc(Cl)cc1 | > 1.25 | 0.923 | > 10
CCN(CC)CCCN(Cc1cc2ccc(OC)cc2[nH]c1=O)C(=S)NCc1ccccc1 | 3.91 | 2.41 | 25.9
CC[n+]1c(/C=C2\C=C(C)CC(C)C2)sc2ccccc21 (configuration not stated) | > 1.14 | > 0.913 | > 10
O=C(C1CCC1)N1CCN(c2ccccn2)CC1 | > 1.25 | > 0.918 | > 10
O=C1c2ccc(-c3nc(-c4ccccc4)[nH]c3-c3ccccc3)cc2-c2cc(-c3[nH]c(-c4ccccc4)nc3-c3ccccc3)ccc21 | 9.19 | 8.93 | > 100
COc1ccc(/C=C2/SC(Nc3ccc(F)cc3)=NC2=O)c(OC)c1 | 1.06 | 0.916 | > 10
Cc1nc(N2CCC(C)CC2)c2c(C)c(C(=O)Nc3ccc(F)cc3)sc2n1 | 0.792 | > 0.912 | > 10
CC(C)=CCC/C(C)=C/CCC(C)NCCN1CCNCC1 (configuration not stated) | > 1.1 | 0.911 | > 10
CC[n+]1c(/C=C/C=C2\N(C)c3ccccc3C2(C)C)n(Cc2ccccc2)c2ccccc21 | 0.355 | 0.219 | 2.42
O=C(Nc1ccccc1Cl)C1CCCN1C(=O)OCc1ccccc1 (configuration not stated) | > 1.25 | > 0.929 | > 10
O=[N+]([O-])c1ccc(NN=Cc2cccs2)c(S(=O)(=O)N2CCCCCC2)c1 | > 1.25 | > 0.899 | > 10
COCCN(CC(O)CNC(=O)c1ccc2ccccc2n1)S(=O)(=O)c1c(C)noc1C (configuration not stated) | > 0.09 | > 0.895 | > 10
Cc1ccc2c(c1)C1CN(C)CCC1N2C(=O)c1cc2ccccc2o1 (configuration not stated) | > 1.04 | > 0.922 | > 10
CCn1c(SCCNC(=O)CC(C)C)nc(-c2ccccc2)c1-c1ccccc1 | > 1.25 | > 0.922 | > 9.92
CSc1oc(-c2ccccc2)nc1C(N)=O | > 1.2 | > 0.925 | > 10
Cc1ccccc1CNC(=O)c1oc2c(c1C)-c1[nH]ncc1CC2 | > 1.25 | > 0.914 | > 10
COc1ccc(C2=C(c3ccc(OC)cc3)C3(c4ccccc4)C(=O)C2(c2ccccc2)C2C(=O)N(c4ccc(C)c(Br)c4)C(=O)C23)cc1 (configuration not stated) | 0.734 | 0.901 | > 10
O=C(Nc1ccc(Nc2cc([N+](=O)[O-])ccc2O)c2c1C(=O)c1ccccc1C2=O)c1ccccc1 | > 1.25 | > 0.901 | > 10
O=C(COc1cccc(Cl)c1)Nc1nccs1 | > 12.5 | > 9.29 | > 100
CCC(NC1CCCCC1)c1nc2ccccc2c(=O)n1C (configuration not stated) | 1.11 | 0.888 | > 10
CN(c1ccc(Cl)cc1)S(=O)(=O)c1ccc2[nH]cc(C(=O)NCCC3=CCCCC3)c(=O)c2c1 | > 1.25 | > 0.911 | > 10
CC(C)(C)CC(C)(C)c1ccc(OCC(=O)NN=C2C(=O)Nc3ccccc32)c([N+](=O)[O-])c1 | > 1 | 0.927 | > 10
